From BindingDB's records for patent US11802133 (Hoffmann-La Roche, 2023)

Target: T1, Monoglyceride lipase (Homo sapiens, UniProt Q99685)
T1 sequence (Q99685 whole entry): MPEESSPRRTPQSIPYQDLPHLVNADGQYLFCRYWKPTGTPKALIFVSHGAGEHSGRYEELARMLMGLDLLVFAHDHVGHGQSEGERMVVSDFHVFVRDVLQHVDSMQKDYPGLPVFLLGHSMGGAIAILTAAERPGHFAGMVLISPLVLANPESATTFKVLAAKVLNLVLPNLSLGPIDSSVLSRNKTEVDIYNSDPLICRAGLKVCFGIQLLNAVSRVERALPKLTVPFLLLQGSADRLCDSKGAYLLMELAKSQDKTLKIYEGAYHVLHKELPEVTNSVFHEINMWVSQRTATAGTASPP
Experiment: MAGL Inhibitory Activity Assay
Procedure: The plate was shaked for 1 min at 2000 rpm (Variomag Teleshake) and then incubated for 15 min at RT. […] The final concentrations in the assay were 1 nM MAGL and 300 μM 4-Nitrophenylacetate. […] A second measurement was then done after incubation for 80 min at RT. From the two measurements, the slope was calculated by subtracting the first from the second measurement.

Row | IC50 [µM] | Structure (SMILES)
1 | 0.045 | O=C1CO[C@H]2CCN(C(=O)N3CC(OCc4cccc(OC(F)(F)F)c4)C3)C[C@H]2N1 [US11802133, Example 226]
2 | 0.03 | O=C1CO[C@H]2CCN(C(=O)N3CC(CCc4ccc(O)cc4C(F)(F)F)C3)C[C@H]2N1 [US11802133, Example 293]
